Results from ChEMBL document CHEMBL4342475, “Structure-Bioactivity Relationships of Lapatinib Derived Analogs against Schistosoma mansoni” (ACS Med Chem Lett, 2020).
In brackets after ≈: the same amount, converted by molar mass. Activity calls are given as the source filed them. No cut-off for these calls is given here.

Experiments:
Schistosoma mansoni [1] = test: Antiparasitic activity against Schistosoma mansoni infected in Hamster assessed as severity score at 10 uM incubated for 24 hrs; assay type: functional, organism-based
Schistosoma mansoni [2] = test: Antiparasitic activity against Schistosoma mansoni infected in Hamster assessed as severity score at 10 uM incubated for 48 hrs; assay type: functional, organism-based
[3] = Metabolic stability in human liver microsomes assessed as intrinsic clearance by LC-MS/MS analysis; assay type: ADME, Microsome
Schistosoma mansoni [4] = test: Antiparasitic activity against Schistosoma mansoni infected in Hamster assessed as severity score at 10 uM incubated for 1 hr; assay type: functional, organism-based
[5] = Aqueous solubility of compound incubated for 24 hrs by LC-MS/MS analysis; assay type: physicochemical; conditions: for solubility: buffer, 24 h
Schistosoma mansoni [6] = test: Antiparasitic activity against Schistosoma mansoni infected in Hamster assessed as severity score at 10 uM incubated for 5 hrs; assay type: functional, organism-based
[7] = Cytotoxicity against human HepG2 cells assessed as reduction in cell viability 48 hrs by MTT assay; assay type: cell-based; conditions: read-out: TC50
[8] = Protein binding in human plasma at 1 uM by LC-MS/MS analysis; assay type: ADME, cell-free

intrinsic clearance [3]	solubility at 24 h ([5]; aqueous)	PPB [8]	solubility [5]	SMILES	Activity (Schistosoma mansoni [1])	Activity (Schistosoma mansoni [2])	Activity (Schistosoma mansoni [4])	Activity (Schistosoma mansoni [6])	CC50 at 48 h [7]
130 µL/min/mg	[…]	–	–	Cc1cc2c(Nc3cnccn3)ccnc2cc1-c1cnc(N2CCN(C)CC2)nc1	Active	Active	inactive	–	–
–	–	–	–	COc1ccc(Nc2ccnc3cc(-c4cnc(N5CCCN(C)CC5)nc4)ccc23)cc1Cl	Active	Active	inactive	inactive	6.8 µM
–	–	–	–	c1cnc(Nc2ccnc3cc(-c4cnc(N5CCCNCC5)nc4)ccc23)cn1	inactive	inactive	inactive	inactive	25 µM
–	–	–	–	CN1CCN(c2ncc(-c3ccc4c(N[C@@H]5CCCC[C@H]5O)ccnc4c3)cn2)CC1	inactive	inactive	inactive	inactive	–
–	–	–	–	CC(C)(C)OC(=O)N1CCN(c2ncc(-c3ccc4c(Nc5cnccn5)ccnc4c3)cn2)CC1	inactive	inactive	inactive	inactive	–
–	–	–	–	CCN1CCN(c2ncc(-c3ccc4c(Nc5cnccn5)ccnc4c3)cn2)CC1	inactive	inactive	inactive	inactive	–
–	–	–	–	CN1CCCN(c2ncc(-c3ccc4c(Nc5cnccn5)ccnc4c3)cn2)CC1	inactive	inactive	inactive	inactive	–
–	–	–	–	CN1CCN(c2ncc(-c3ccc4c(NC5CCOCC5)ccnc4c3)cn2)CC1	inactive	inactive	inactive	inactive	–
–	–	–	–	CN(CCNc1ncc(-c2ccc3c(Nc4cnccn4)ccnc3c2)cn1)C(=O)OC(C)(C)C	inactive	Active	inactive	inactive	–
–	–	–	–	CCN1CCCN(c2ncc(-c3ccc4c(Nc5cnccn5)ccnc4c3)cn2)CC1	inactive	inactive	inactive	inactive	> 36 µM
–	–	–	–	COc1ccc(NC(=O)c2ccc(-c3cnc(N4CCCN(C)CC4)nc3)cc2O)cc1Cl	inactive	Active	inactive	inactive	–
120 µL/min/mg	–	82%	860 µM (≈ 367 µg/mL)	Cc1c(-c2cnc(N3CCCN(C)CC3)nc2)ccc2c(Nc3cnccn3)ccnc12	inactive	inactive	inactive	inactive	–
–	–	–	–	CN1CCCN(c2ncc(-c3ccc4c(c3)ncc3c5ccccc5[nH]c43)cn2)CC1	inactive	Active	inactive	inactive	7.4 µM
–	–	–	–	COc1ccc(NC(=O)c2ccc(-c3cccc(N4CCOCC4)c3)cc2O)cc1Cl	–	Active	–	inactive	35 µM
–	–	–	–	COC(=O)C1CCCN1c1ncc(-c2ccc3c(Nc4cnccn4)ccnc3c2)cn1 (stereo not drawn)	–	Active	inactive	inactive	–
–	–	–	–	CN1CCCN(S(=O)(=O)c2ccc(-c3ccc4c(Nc5ccc(Cl)cn5)ccnc4c3)cc2)CC1	inactive	inactive	inactive	inactive	1.8 µM
–	–	–	–	CN1CCN(c2ncc(-c3ccc4c(Nc5cnccn5)ccnc4c3)cn2)CC1	inactive	inactive	inactive	inactive	–
–	–	–	–	c1cc(-c2ccc3c(c2)ncc2c4ccccc4[nH]c32)cc(N2CCOCC2)c1	inactive	inactive	inactive	inactive	40 µM
–	–	–	–	Cc1c(-c2cnc(N3CCN(C)CC3)nc2)ccc2c(Nc3cnccn3)ccnc12	inactive	inactive	inactive	inactive	–
–	–	–	–	CN1CCN(c2ncc(-c3ccc4c(NC5CCC(N(C)C)CC5)ccnc4c3)cn2)CC1 (stereo not drawn)	inactive	inactive	inactive	inactive	–
–	–	–	–	COc1ccc(NC(=O)c2ccc(-c3cnc(N4CCN(C)CC4)nc3)cc2O)cc1Cl	inactive	–	inactive	inactive	27 µM

intrinsic clearance [3]	solubility at 24 h ([5]; aqueous)	PPB [8]	solubility [5]	SMILES	Activity (Schistosoma mansoni [1])	Activity (Schistosoma mansoni [2])	Activity (Schistosoma mansoni [4])	Activity (Schistosoma mansoni [6])	CC50 at 48 h [7]
–	–	–	–	CN1CCN(c2ncc(-c3ccc4c(NCCN5CCCC5)ccnc4c3)cn2)CC1	inactive	inactive	inactive	inactive	–
41 µL/min/mg	–	76%	465 µM (≈ 192 µg/mL)	Cc1c(-c2cnc(N3CCCNCC3)nc2)ccc2c(Nc3cnccn3)ccnc12	Active	Active	inactive	inactive	> 3.7 µM
–	–	–	–	Cc1cnc(Nc2ccnc3cc(-c4cnc(N5CCN(C)CC5)nc4)ccc23)cn1	Active	Active	inactive	Active	16 µM
–	–	–	–	CN1C[C@H]2C[C@@H]1CN2c1ncc(-c2ccc3c(Nc4cnccn4)ccnc3c2)cn1	inactive	inactive	inactive	inactive	–
300 µL/min/mg	–	94%	450 µM (≈ 205 µg/mL)	CCCN1CCCN(c2ncc(-c3ccc4c(Nc5cnccn5)ccnc4c3C)cn2)CC1	Active	Active	inactive	inactive	12 µM
–	–	–	–	Cc1ccc2[nH]c3c4ccc(-c5cnc(N6CCCN(C)CC6)nc5)cc4ncc3c2c1	Active	Active	–	Active	4.7 µM
–	–	–	–	CCCN1CCN(c2ncc(-c3ccc4c(Nc5cnccn5)ccnc4c3)cn2)CC1	inactive	Active	inactive	inactive	–
–	–	–	–	CCCN1CCCN(c2ncc(-c3ccc4c(Nc5cnccn5)ccnc4c3)cn2)CC1	inactive	inactive	inactive	inactive	17 µM
300 µL/min/mg	–	88%	480 µM (≈ 218 µg/mL)	CCCN1CCCN(c2ncc(-c3cc4nccc(Nc5cnccn5)c4cc3C)cn2)CC1	–	inactive	–	inactive	7.6 µM
–	–	–	–	COc1ccc(Nc2ccnc3cc(-c4ccc(S(=O)(=O)N5CCCN(C)CC5)cc4)ccc23)cc1Cl	inactive	inactive	inactive	inactive	11 µM
–	–	–	–	CN1CCN(c2ncc(-c3ccc4c(NCC5CCOCC5)ccnc4c3)cn2)CC1	inactive	inactive	inactive	inactive	–
–	–	–	–	CN1CCCN(c2ncc(-c3ccc4c(Nc5ccncn5)ccnc4c3)cn2)CC1	inactive	inactive	inactive	inactive	> 37 µM
–	–	–	–	Cc1cnc(Nc2ccnc3cc(-c4cnc(N5CCCN(C)CC5)nc4)ccc23)cn1	–	Active	inactive	inactive	–
260 µL/min/mg	–	82%	670 µM (≈ 286 µg/mL)	Cc1cc2c(Nc3cnccn3)ccnc2cc1-c1cnc(N2CCCN(C)CC2)nc1	Active	Active	Active	Active	7.6 µM
–	–	–	–	O=C(O)C1CCCN1c1ncc(-c2ccc3c(Nc4cnccn4)ccnc3c2)cn1 (stereo not drawn)	inactive	inactive	inactive	inactive	–
13 µL/min/mg	–	70%	1000 µM (≈ 413 µg/mL)	Cc1cc2c(Nc3cnccn3)ccnc2cc1-c1cnc(N2CCCNCC2)nc1	inactive	inactive	inactive	inactive	13 µM
–	–	–	–	COc1ccc(NC(=O)c2ccc(-c3cccc(N4CCOCC4)c3)cc2N)cc1Cl	inactive	inactive	inactive	inactive	35 µM
–	–	–	–	O=C(O)CN1CCN(c2ncc(-c3ccc4c(Nc5cnccn5)ccnc4c3)cn2)CC1	inactive	inactive	inactive	inactive	> 30 µM
–	–	–	–	COc1ccc(NC(=O)c2ccc(-c3ccc(S(=O)(=O)N4CCN(C)CC4)cc3)cc2O)cc1Cl	inactive	–	inactive	inactive	> 29 µM
300 µL/min/mg	–	84%	790 µM (≈ 348 µg/mL)	CCN1CCCN(c2ncc(-c3cc4nccc(Nc5cnccn5)c4cc3C)cn2)CC1	Active	Active	–	Active	4.7 µM
